Assay results: patent US6461997B1, “Triazole sulfones having herbicidal activity” (Monsanto Technology LLC, priority 1999, dated 2002)

What was measured:
[1] = tested on: DIGSA (large crabgrass); assay: Pre-emergence herbicidal activity, warm season; format: in vivo, Digitaria sanguinalis; settings: GR80 = lowest tested rate (300, 100, 30, 10 g/ha) with 80% or greater inhibition; approx. 14 days after treating; 30/21° C.
Method in brief: (§1)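 Read-out: GR80, derived from percent growth inhibition relative to untreated plants at roughly 14 days after planting and treatment. Compounds went onto the surface of freshly seeded soil at 10–300 g/ha. Day/night regimes were 30/21 °C for millet and crabgrass, 18/13 °C for blackgrass and buckwheat.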

[2] = tested on: SASKR (russian thistle); assay: Pre-emergence herbicidal activity, cool season; format: in vivo, Salsola kali; settings: lowest tested rate with 80% or greater inhibition; rates 300, 100, 30, 10 g/ha; about 14 days
Method in brief: (§2)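 Seeds sown in sterilised fertilised topsoil received surface-applied compound in 50:50 acetone/water, typically at 300, 100, 30 and 10 g/ha, then greenhouse-grown at 30/21° C (warm-season species) or 18/13° C (cool-season species). Percent inhibition versus untreated plants was scored at about 14 days, giving GR80; an asterisk marks activity short of 80% at the top rate.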

[3] = tested on: LOLMG (annual ryegrass); assay: Pre-emergence herbicidal activity, cool season; format: in vivo, Lolium multiflorum; settings: GR80 = lowest tested rate (300, 100, 30, 10 g/ha) with 80% or greater inhibition; approx. 14 days after treating; 18/13° C.
Method in brief: as §2

[4] = tested on: STEME (common chickweed); assay: Pre-emergence herbicidal activity, cool season; format: in vivo, Stellaria media; settings: lowest tested rate with 80% or greater inhibition; rates 300, 100, 30, 10 g/ha; about 14 days
Method in brief: as §2

[5] = tested on: ALOMY (blackgrass); assay: Pre-emergence herbicidal activity, cool season; format: in vivo, Alopecurus myosuroides; settings: GR80 = lowest tested rate (300, 100, 30, 10 g/ha) with 80% or greater inhibition; approx. 14 days after treating; 18/13° C.
Method in brief: as §1

[6] = tested on: SORHA (johnsongrass (seedling)); assay: Pre-emergence herbicidal activity, warm season; format: in vivo, Sorghum halepense; settings: GR80 = lowest tested rate (300, 100, 30, 10 g/ha) with 80% or greater inhibition; approx. 14 days after treating; 30/21° C.
Method in brief: (§3)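 Activity is expressed as the rate giving 80% inhibition, with 300, 100, 30 and 10 g/ha typically tested. An asterisk marks activity short of 80% at the top rate. Warm-season grasses were held at 30/21 °C; cool-season blackgrass and wild buckwheat at 18/13 °C; scoring at about 14 days.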

[7] = tested on: AGRRE (quackgrass (seedling)); assay: Pre-emergence herbicidal activity, cool season; format: in vivo, Elymus repens; settings: GR80 = lowest tested rate (300, 100, 30, 10 g/ha) with 80% or greater inhibition; approx. 14 days after treating; 18/13° C.
Experimental: (§4) Tables 5 to 8 summarize results of tests conducted as described below to determine the pre-emergence herbicidal activity, in the form of a GR80 value, of illustrative compounds of this invention. […] Compounds of the invention were typically applied at rates of 300, 100, 30, and 10 g/ha. Where herbicidal activity was evident but 80% inhibition was not achieved at the highest rate tested, an asterisk (*) is shown in the following tables.
(§5) The pre-emergence tests were conducted by the following procedure. Topsoil was sieved to pass through a 1.27 cm screen. Fertilizer was added to the topsoil and the mixture was then sterilized by heating. The topsoil mixture was placed in a pot and compacted to a depth of 1.0 to 1.25 cm from the top of the pot. Seeds of each of several monocotyledonous and dicotyledonous annual plant species were placed on top of the soil. Additional soil was subsequently placed over the seeds to level-fill the pot. A known amount of each test compound dissolved or suspended in an appropriate organic solvent was diluted with a 50:50 mix of acetone and water and applied to the surface of the soil. After treatment the plants were placed in a greenhouse where they received 0.64 cm of overhead irrigation. All subsequent watering consisted of a light overhead mist and/or subirrigation as needed for germination and growth. Tables 5 and 6 below relate to warm season plant species which were placed after pre-emergence treatment in a greenhouse with a 30/21° C. day/night temperature regime. Tables 7 and 8 below relates to cool season plant species placed after pre-emergence treatment in a greenhouse or growth chamber with an 18/13° C. day/night temperature regime.
(§6) Approximately 14 days after planting and treating, the plants were observed and herbicidal efficacy recorded as percent inhibition by comparison with untreated plants.
(§7) The plant species usually regarded as weeds which were utilized in the tests are identified in the tables below according to the following legend, in which “d” indicates a dicotyledonous species and “m” a monocotyledonous species. All monocotyledonous species included in the tests herein are grasses.

[8] = tested on: SINAR (wild mustard); assay: Pre-emergence herbicidal activity, cool season; format: in vivo, Sinapis arvensis; settings: lowest tested rate with 80% or greater inhibition; rates 300, 100, 30, 10 g/ha; about 14 days
Method in brief: as §2

[9] = tested on: CHEAL (common lambsquarters); assay: Pre-emergence herbicidal activity, warm season; format: in vivo, Chenopodium album; settings: GR80 = lowest tested rate (300, 100, 30, 10 g/ha) with 80% or greater inhibition; approx. 14 days after treating; 30/21° C.
Method in brief: as §2

[10] = tested on: ECHCG (barnyardgrass); assay: Pre-emergence herbicidal activity, warm season; format: in vivo, Echinochloa crus-galli; settings: GR80 = lowest tested rate (300, 100, 30, 10 g/ha) with 80% or greater inhibition; approx. 14 days after treating; 30/21° C.
Method in brief: as §3

[11] = tested on: LAMPU (purple deadnettle); assay: Pre-emergence herbicidal activity, cool season; format: in vivo, Lamium purpureum; settings: lowest tested rate with 80% or greater inhibition; rates 300, 100, 30, 10 g/ha; about 14 days
Method in brief: as §2

[12] = tested on: AVEFA (wild oat); assay: Pre-emergence herbicidal activity, cool season; format: in vivo, Avena fatua; settings: GR80 = lowest tested rate (300, 100, 30, 10 g/ha) with 80% or greater inhibition; approx. 14 days after treating; 18/13° C.
Method in brief: as §2

[13] = tested on: SETVI (green foxtail); assay: Pre-emergence herbicidal activity, cool season; format: in vivo, Setaria viridis; settings: GR80 = lowest tested rate (300, 100, 30, 10 g/ha) with 80% or greater inhibition; approx. 14 days after treating; 18/13° C.
Method in brief: as §2

[14] = tested on: POROL (common purslane); assay: Pre-emergence herbicidal activity, warm season; format: in vivo, Portulaca oleracea; settings: GR80 = lowest tested rate (300, 100, 30, 10 g/ha) with 80% or greater inhibition; approx. 14 days after treating; 30/21° C.
Method in brief: as §2

[15] = tested on: SORVU (shattercane); assay: Pre-emergence herbicidal activity, warm season; format: in vivo, Sorghum vulgare; settings: GR80 = lowest tested rate (300, 100, 30, 10 g/ha) with 80% or greater inhibition; approx. 14 days after treating; 30/21° C.
Method in brief: as §3

[16] = tested on: GALAP (catchweed bedstraw); assay: Pre-emergence herbicidal activity, cool season; format: in vivo, Galium aparine; settings: lowest tested rate with 80% or greater inhibition; rates 300, 100, 30, 10 g/ha; about 14 days
Method in brief: as §2

[17] = tested on: PANMI (wild proso millet); assay: Pre-emergence herbicidal activity, warm season; format: in vivo, Panicum miliaceum; settings: GR80 = lowest tested rate (300, 100, 30, 10 g/ha) with 80% or greater inhibition; approx. 14 days after treating; 30/21° C.
Method in brief: as §1

[18] = tested on: SOLNI (black nightshade); assay: Pre-emergence herbicidal activity, warm season; format: in vivo, Solanum nigrum; settings: GR80 = lowest tested rate (300, 100, 30, 10 g/ha) with 80% or greater inhibition; approx. 14 days after treating; 30/21° C.
Method in brief: as §2

[19] = tested on: AGSST (creeping bentgrass); assay: Pre-emergence herbicidal activity, cool season; format: in vivo, Agrostis stolonifera; settings: GR80 = lowest tested rate (300, 100, 30, 10 g/ha) with 80% or greater inhibition; approx. 14 days after treating; 18/13° C.
Method in brief: as §2

[20] = tested on: SETFA (giant foxtail); assay: Pre-emergence herbicidal activity, warm season; format: in vivo, Setaria faberi; settings: GR80 = lowest tested rate (300, 100, 30, 10 g/ha) with 80% or greater inhibition; approx. 14 days after treating; 30/21° C.
Method in brief: as §3

[21] = tested on: VERPE (creeping speedwell); assay: Pre-emergence herbicidal activity, cool season; format: in vivo, Veronica persicaria; settings: lowest tested rate with 80% or greater inhibition; rates 300, 100, 30, 10 g/ha; about 14 days
Method in brief: as §2

[22] = tested on: AEGCY (jointed goatgrass); assay: Pre-emergence herbicidal activity, cool season; format: in vivo, Aegilops cylindrica; settings: GR80 = lowest tested rate (300, 100, 30, 10 g/ha) with 80% or greater inhibition; approx. 14 days after treating; 18/13° C.
Experimental: as §4, §5, §6, §7

[23] = tested on: PANDI (fall panicum); assay: Pre-emergence herbicidal activity, warm season; format: in vivo, Panicum dichotomiflorum; settings: GR80 = lowest tested rate (300, 100, 30, 10 g/ha) with 80% or greater inhibition; approx. 14 days after treating; 30/21° C.
Method in brief: as §3

[24] = tested on: POLCO (wild buckwheat); assay: Pre-emergence herbicidal activity, cool season; format: in vivo, Polygonum convolvulus; settings: lowest tested rate with 80% or greater inhibition; rates 300, 100, 30, 10 g/ha; about 14 days
Method in brief: as §1

[25] = tested on: BRAPP (broadleaf signalgrass); assay: Pre-emergence herbicidal activity, warm season; format: in vivo, Brachiaria platyphylla; settings: GR80 = lowest tested rate (300, 100, 30, 10 g/ha) with 80% or greater inhibition; approx. 14 days after treating; 30/21° C.
Method in brief: as §3

## CCCN(CC)C(=O)n1cnc(S(=O)(=O)C(F)(F)SCC)n1 [Example 51]
[1]
  Pre-emergence activity (GR80) DIGSA: 100 g/ha
[2]
  Pre-emergence activity GR80, SASKR: 100 g/ha
[3]
  Pre-emergence activity (GR80) LOLMG: 100 g/ha
[4]
  Pre-emergence activity GR80, STEME: 10 g/ha
[5]
  Pre-emergence activity (GR80) ALOMY: 300 g/ha
[6]
  Pre-emergence activity (GR80) SORHA: 100 g/ha
[7]
  Pre-emergence activity (GR80) AGRRE: 300 g/ha
[8]
  Pre-emergence activity GR80, SINAR: 10 g/ha
[9]
  Pre-emergence activity (GR80) CHEAL: 10 g/ha
[10]
  Pre-emergence activity (GR80) ECHCG: 100 g/ha
[11]
  Pre-emergence activity GR80, LAMPU: 10 g/ha
[12]
  Pre-emergence activity (GR80) AVEFA: 300 g/ha
[13]
  Pre-emergence activity (GR80) SETVI: 100 g/ha
[14]
  Pre-emergence activity (GR80) POROL: 300 g/ha
[15]
  Pre-emergence activity (GR80) SORVU: 30 g/ha
[16]
  Pre-emergence activity GR80, GALAP: 100 g/ha
[17]
  Pre-emergence activity (GR80) PANMI: 100 g/ha
[18]
  Pre-emergence activity (GR80) SOLNI: 300 g/ha
[19]
  Pre-emergence activity (GR80) AGSST: 10 g/ha
[20]
  Pre-emergence activity (GR80) SETFA: 100 g/ha
[21]
  Pre-emergence activity GR80, VERPE: 10 g/ha
[22]
  Pre-emergence activity (GR80) AEGCY: 300 g/ha
[23]
  Pre-emergence activity (GR80) PANDI: 100 g/ha
[24]
  Pre-emergence activity GR80, POLCO: 100 g/ha
[25]
  Pre-emergence activity (GR80) BRAPP: 100 g/ha
